We go through 2 molecules from patent US20180020667A1, “CHEMICAL COMPOSITIONS THAT PRESENT SYNERGIC EFFECT FOR […] INSECTS IN PERSONAL HYGIENE PRODUCTS, COSMETICS FOR HUMAN USE, IN ANIMALS AND ON INANIMATE SURFACES IN GENERAL” (Universal Chemical Ltda., priority 2016, published 2018).

The test system of assay [1] is insects. The following applies: cited from earlier work.
The test system of assay [2] is insects. Description: Length of protection against insect bites after application on the skin (conducted tests). Format: in vivo. The text has this: Icaridin and DEET are employed in this synergic mixture as active ingredient.
Where [3] appears, read: 5% active ingredient in the repellent.
Setting [4] is: 10% active ingredient in the repellent.
Setting [5] is: 15% active ingredient in the repellent.
Where [6] appears, read: 20% active ingredient in the repellent.

Like-named read-outs stand apart in the source and are kept apart here.

For N,N-dimethyl-3-methylbenzamide [DEET], the “Repellent Capacity Length of Protection” value in assay [1] (setting [3]) was 1 h; in assay [1] (setting [4]), 2 h; in assay [1] (setting [5]), 4 h; in assay [1] (setting [6]), 6 h; in assay [1] (50% active ingredient in the repellent) it was 10 h. Besides, the “Length of protection against insect bites” value in assay [1] (concentration of 50%) was 10 h; in assay [2] (7% concentration in the insect repellent) it was 2 h; in assay [2] (50% concentration in the insect repellent) it was 10 h.

`CCC(C)OC(=O)N1CCCCC1CCO` (stereo not drawn) [Icaridin, 1-piperidinecarboxylic acid, 2-(2-hydroxyethyl)-, 1-methylpropyl ester]: the “Repellent Capacity Length of Protection” value in assay [1] (setting [3]) is 1.5 h; in assay [1] (setting [4]), 4 h; in assay [1] (setting [5]) it was 7 h; in assay [1] (setting [6]) it was 10 h. For the same molecule, the results for the “Length of protection against insect bites” value in assay [1] (concentrations between 20 to 25%), in assay [2] (10% concentration in the insect repellent) and in assay [2] (20% concentration in the insect repellent) were “up to 10 hours”, 4 h and 10 h, respectively.
